# Target: T1, PD-1/PD-L1 (Homo sapiens, UniProt Q9NZQ7)
# T1 construct: purchased Cisbio 63ADK000CPDPEB
# Test: PD-1/PD-L1 binding assay (HTRF, PPI-HTRF)
# Settings: HTRF PD1/PD-L1 binding assay kit; 10 nM Tag1-PD-L1; 25° C.
# Experimental: Assay 1 PD-1/PD-L1 Binding Assay
# DMSO is from Sigma, Cat No: D5879; 384-well small volume plate (white) is from Greiner, Cat No: 784075; Anti-PD1 blocking antibody (IC50: 10 nM) is from Cisbio, Cat No: 64CUS000C-1a; Anti-PDL1 blocking antibody (IC50: 0.3 nM) is from Cisbio, Cat No: 64CUS000C-1b; HTRF PD1/PD-L1 binding assay kit is from Cisbio, Cat No: 63ADK000CPDPEB.
# 1. Prepare the compound to be tested at 2x concentration into 1× reaction buffer containing 4% DMSO;
# 2. Tag1-PD-L1 protein and Tag2-PD1 protein were prepared in 1× reaction buffer at concentrations of […] and 10 nM, respectively. The final reaction concentration of the experiment was 10 nM Tag1-PD-L1 and 2 nM […];
# 3. anti-Tag1-Eu3+ antibody is prepared in 1x concentration detection buffer at a ratio of 1:100;
# 4. anti-Tag2-XL665 antibody is prepared in 1x concentration detection buffer at a ratio of 1:25; Experimental steps
# 1. 5 μL of compounds to be tested (2×) was added;
# 2. 2.5 ul Tag1-PD-L1 protein and 2.5 ul Tag2-PD1 protein were added respectively, and the total reaction system is 10 ul, and reacted at 25° C. for 15 minutes;
# 3. 5 ul anti-Tag1-Eu3+ antibody and 5 ul anti-Tag2-XL665 antibody were added respectively, and reacted at 25° C. for 16 hours;
# 4. The fluorescence microplate reader HTRF reading program was used to read two readings at 665 nm and 620 nm, the ratio of the two wavelengths was used to judge the activity of the compound, and the IC50 of the compound to be tested is calculated by XLFIT5.0 (IDBS).
# T1 sequence (Q9NZQ7 19-238 limits assumed): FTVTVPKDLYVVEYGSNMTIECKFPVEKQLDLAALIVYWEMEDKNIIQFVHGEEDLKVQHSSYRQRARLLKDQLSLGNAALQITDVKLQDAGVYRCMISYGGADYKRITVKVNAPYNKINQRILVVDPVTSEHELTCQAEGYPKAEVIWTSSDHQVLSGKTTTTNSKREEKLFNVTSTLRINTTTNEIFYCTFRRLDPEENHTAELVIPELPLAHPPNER
row,IC50 [nM],Structure (SMILES)
1,2,COc1cc(/C=C/c2cccc(-c3cccc(-c4nc5cc(CN6CC[C@@H](O)C6)cc(Cl)c5o4)c3C)c2C)c(C(F)(F)F)cc1CN1CC[C@@H](C(=O)O)C1 [Z-22]
2,3,Cc1cc(/C=C/c2cccc(-c3cccc(NC(=O)c4ccc(CN5CC[C@@H](O)C5)cn4)c3C)c2C(F)(F)F)c(Cl)cc1CN1CC[C@@H](C(=O)O)C1 [Z-88]
3,2,"Cc1cc(/C=C/c2nccc(-c3cccc(-c4nc5c(s4)CN(C(=O)CN(C)C)CC5)c3C)c2C#N)c(Cl)cc1CN1CC[C@@H](C(=O)O)C1 [Z-61, (R,E)-1-(5-chloro-4-(2-(3-cyano-4-(3-(5-(dimethylglycyl)-4,5,6,7-tetrahydrothiazolo [5,4-c]pyridin-2-yl)-2-methylphenyl)pyridin-2-yl)vinyl)-2-methylbenzyl)pyrrolidine-3-carboxylic Acid]"
4,5,COc1cc(/C=C/c2cccc(-c3cccc(-c4nc5cc(CN6CC[C@@H](C(=O)O)C6)cc(C#N)c5o4)c3F)c2C)c(C(F)(F)F)cc1CN1CC[C@@H](O)C1 [Z-28]
5,3,COc1cc(/C=C/c2cccc(-c3cccc(-c4nc(OC)c(CNC[C@@H]5CCC(=O)N5)cc4Cl)c3C)c2C)c(C(F)(F)F)cc1CN1CC[C@@H](C(=O)O)C1 [Z-55]
6,3,COc1cc(/C=C/c2cccc(-c3cccc(NC(=O)c4ccc(CN5CC[C@@H](O)C5)c(OC)n4)c3C)c2C)c(C(F)(F)F)cc1CN1CCC[C@H]1C(=O)O [Z-116]
7,2,COc1cc(/C=C/c2cccc(-c3cccc(-c4nc5cc(CN6CC[C@@H](O)C6)ccc5o4)c3C)c2F)c(C(F)(F)F)cc1CN1CC[C@@H](C(=O)O)C1 [Z-20]
8,2,COc1cc(/C=C/c2cccc(-c3cccc(-c4nc5cc(CN6CC[C@H](C(=O)O)C6)ccc5o4)c3C)c2C)c(C(F)(F)F)cc1CN1CC[C@H](O)C1 [Z-32]
9,2,COc1cc(/C=C/c2cccc(-c3cccc(-c4nc5cc(CN6CC[C@@H](O)C6)ccc5o4)c3C)c2C#N)c(C(F)(F)F)cc1CN1CC[C@@H](C(=O)O)C1 [Z-19]
10,2,COc1cc(/C=C/c2cccc(-c3cccc(-c4nc5cc(CN6CC[C@@H](C(=O)O)C6)ccc5o4)c3C)c2C)c(C(F)(F)F)cc1CN1CC[C@H](O)C1 [Z-31]
11,5,Cc1cc(/C=C/c2nccc(-c3cccc(NC(=O)c4ccc(CN5CCOCC5)cn4)c3C)c2C#N)c(Cl)cc1CN1CCCC[C@H]1C(=O)O [Z-71]
12,1,Cc1cc(/C=C/c2cccc(-c3cccc(-c4nc5cc(CN6CC[C@@H](O)C6)ccc5o4)c3C)c2C)c(C(F)(F)F)cc1CN1CC[C@@H](C(=O)O)C1 [Z-17]
13,2,Cc1cc(CN2CCCC[C@H]2C(=O)O)c(C)cc1/C=C/c1nccc(-c2cccc(NC(=O)c3ccc(CN4CC[C@@H](O)C4)cn3)c2C)c1C#N [Z-72]
14,36,COc1cc(/C=C/c2nccc(-c3cccc(NC(=O)c4ccc(CN5CC[C@@H](O)C5)cn4)c3C)c2C#N)cc(OC)c1CN1CCCC[C@H]1C(=O)O [Z-75]
15,18,Cc1c(NC(=O)c2ccc(CN3CC[C@@H](O)C3)cn2)cccc1-c1ccnc(/C=C/c2cc3nc(CN4CC[C@H](C(=O)O)C4)oc3cc2Cl)c1C#N [Z-64]
16,1,"COc1cc(/C=C/c2cccc(-c3cccc(NC(=O)c4cn5c(n4)CN(C)CC5)c3C)c2C)c(C(F)(F)F)cc1CN1CCC(C(=O)O)C1 (stereo not shown) [Z-129, (E)-1-(4-(2-(2,2′-dimethyl-3′-(7-methyl-5,6,7,8-tetrahydroimidazo[1,2-a]pyrazine-2-carboxamido)-[1,1′-biphenyl]-3-yl)vinyl)-2-methoxy-5-(trifluoromethyl)benzyl)pyrrolidine-3-carboxylic Acid]"
17,1,"Cc1cc(/C=C/c2nccc(-c3cccc(NC(=O)c4ccc(CN5CC[C@@H](O)C5)cn4)c3C)c2C#N)c(Cl)cc1CN1CCC(C)(C(=O)O)C1 (stereo partly drawn) [Z-67, 1-(5-chloro-4-((E)-2-(3-cyano-4-(3-(5-(((R)-3-hydroxypyrrolidin-1-yl)methyl)picolinamido)-2-methylphenyl)pyridin-2-yl)vinyl)-2-methylbenzyl)-3-methylpyrrolidine-3-carboxylic Acid]"

row,IC50 [nM],Structure (SMILES)
1,57,Cc1c(NC(=O)c2ccc(CN3CC[C@@H](O)C3)cn2)cccc1-c1ccnc(/C=C/c2ccc(CN3CC[C@@H](C(=O)O)C3)cn2)c1C#N [Z-69]
2,1,COc1cc(/C=C/c2cccc(-c3cccc(NC(=O)c4ccc(CN5CC[C@@H](O)C5)cc4)c3C)c2C)c(C(F)(F)F)cc1CN1CC[C@@H](C(=O)O)C1 [Z-123]
3,2,Cc1cc(/C=C/c2nccc(-c3cccc(-c4nc5cc(CN6CC[C@@H](C(=O)O)C6)cc(Cl)c5o4)c3C)c2C#N)c(C(F)(F)F)cc1CN1CC[C@@H](O)C1 [Z-48]
4,1,"Cc1cc(/C=C/c2nccc(-c3cccc(Nc4nccc5cc(CN6CC[C@@H](O)C6)cnc45)c3C)c2C#N)c(Cl)cc1CN1CCCC[C@H]1C(=O)O [Z-7, (S)-1-(5-chloro-4-((E)-2-(3-cyano-4-(3-((3-(((R)-3-hydroxypyrrolidin-1-yl)methyl)-1,7-naphthyridin-8-yl)amino)-2-methylphenyl)pyridin-2-yl)vinyl)-2-methylbenzyl)piperidine-2-carboxylic Acid]"
5,1,COc1cc(/C=C/c2cccc(-c3cccc(-c4nc5cc(CN6CC[C@@H](C(=O)O)C6)cc(C#N)c5o4)c3C)c2F)c(C(F)(F)F)cc1CN1CC[C@@H](O)C1 [Z-25]
6,1,Cc1cc(/C=C/c2nccc(-c3cccc(-c4nc5cc(CN6CC[C@@H](O)C6)ccc5o4)c3C)c2C#N)c(Cl)cc1CN1CC[C@@H](C(=O)O)C1 [Z-47]
7,1,Cc1cc(/C=C/c2nccc(-c3cccc(-c4nc5cc(CN6CC[C@@H](O)C6)cc(Cl)c5o4)c3C)c2C#N)c(Cl)cc1CN1CC[C@@H](C(=O)O)C1 [Z-46]
8,1,Cc1cc(/C=C/c2nccc(-c3cccc(NC(=O)c4ccc(CN5CC[C@@H](O)C5)cn4)c3C)c2C#N)c(Cl)cc1CN1CC[C@@H](C(=O)O)C1 [Z-68]
9,1,"Cc1cc(/C=C/c2nccc(-c3cccc(NC(=O)c4ccc(CN5CC[C@@H](O)C5)cn4)c3C)c2C#N)c(C2CC2)cc1CN1CC[C@@H](C(=O)O)C1 [Z-79, (R)-1-(4-((E)-2-(3-cyano-4-(3-(5-(((R)-3-hydroxypyrrolidin-1-yl)methyl)picolinamido)-2-methylphenyl)pyridin-2-yl)vinyl)-5-cyclopropyl-2-methylbenzyl)pyrrolidine-3-carboxylic Acid]"
10,< 1,Cc1cc(/C=C/c2nccc(-c3cccc(NC(=O)c4ccc(CN5CC[C@@H](O)C5)cn4)c3C)c2C)c(Cl)cc1CN1CC[C@@H](C(=O)O)C1 [Z-65]
11,1,COc1cc(/C=C/c2cccc(-c3cccc(-c4nc5cc(CN6CC[C@@H](O)C6)cc(C#N)c5o4)c3C)c2C)c(C(F)(F)F)cc1CN1CC[C@@H](O)C1 [Z-37]
12,3,"Cc1cc(/C=C/c2nccc(-c3cccc(NC(=O)c4ccc(CN5CCOCC5)cn4)c3C)c2C#N)c(Cl)cc1CN1CC[C@@H](C(=O)O)C1 [Z-70, (R,E)-1-(5-chloro-4-(2-(3-cyano-4-(2-methyl-3-(5-(morpholinomethyl)picolinamido)phenyl)pyridin-2-yl)vinyl)-2-methylbenzyl)pyrrolidine-3-carboxylic Acid]"
13,5,COc1cc(/C=C/c2cccc(-c3cccc(NC(=O)c4cc(OC)c(CN5CC[C@@H](C(=O)O)C5)cn4)c3C)c2C)c(C(F)(F)F)cc1CN1CC[C@@H](O)C1 [Z-136]
14,3,"COc1cc(/C=C/c2cccc(-c3cccc(Nc4n[nH]c5ccc(CN6CC[C@@H](O)C6)cc45)c3C)c2C)c(C(F)(F)F)cc1CN1CC[C@@H](C(=O)O)C1 [Z-15, (R)-1-(4-((E)-2-(3′-((5-(((R)-3-hydroxypyrrolidin-1-yl)methyl)-1H-indazole-3-yl)amino)-2,2′-dimethyl-[1,1′-biphenyl]-3-yl)vinyl)-2-methoxy-5-(trifluoromethyl)benzyl)pyrrolidine-3-carboxylic Acid]"
15,2,"Cc1cc(/C=C/c2nccc(-c3cccc(NC(=O)c4ccc(CN5CCCC[C@@H]5C(=O)O)cn4)c3C)c2C#N)c(Cl)cc1CN1CC[C@@H](O)C1 [Z-6, (R)-1-((6-((3-(2-((E)-2-chloro-4-(((R)-3-hydroxypyrrolidin-1-yl)methyl)-5-methylstyryl)-3-cyanopyridin-4-yl)-2-methylphenyl)carbamoyl)pyridin-3-yl)methyl)piperidine-2-carboxylic Acid]"
16,2,"Cc1cc(/C=C/c2nccc(-c3cccc(NC(=O)c4nc5c(n4C)CCN(C)C5)c3C)c2C#N)c(Cl)cc1CN1CCCC[C@H]1C(=O)O [Z-66, (S,E)-1-(5-chloro-4-(2-(3-cyano-4-(3-(1,5-dimethyl-4,5,6,7-tetrahydro-1H-imidazo[4,5-c]pyridine-2-carboxamido)-2-methylphenyl)pyridin-2-yl)vinyl)-2-methylbenzyl)piperidine-2-carboxylic Acid]"
17,1,COc1cc(/C=C/c2cccc(-c3cccc(NC(=O)c4cc(OC)c(CN5CC[C@@H](O)C5)cn4)c3C)c2C)c(C(F)(F)F)cc1CN1CC(C(=O)O)C1 [Z-130]
